How the values were obtained:
[1] = system: ciliary beating frequency of rat trachea; experiment: Ciliary beating frequency, microphoto-oscillographic method of L. Chevance et al; type: cell-based; settings: at 0.6%; within 20 minutes
Experimental: 70, […] (1970). These are just some of the disadvantageous effects that can be encountered.
Moreover the compositions are well tolerated as indicated in standard tests, e.g. in that less than 50% inhibition of ciliary beating frequency is observed up to 20 minutes after administration, according to the microphoto-oscillographic method of L. Chevance et al, Acta Otolaryng. 70, 26-28 (1970).

[2] = Relative bio-availability study: nasal administration/intra-muscular injection of salmon calcitonin, serum level by radio-immuno-assay; type: in vivo, human (healthy volunteers)
Experimental: The study is conducted with 12 healthy volunteers, 6 male and 6 female, with a body weight of from 50 to 85 kg. Each subject receives 4 administrations of salmon calcitonin, one intra-muscularly and 3 nasally. Administration is effected at the following dosages:
Nasal administration is effected using composition in accordance with example 1 and a spray-applicator delivering 55 MRC units per individual spray dosage. For the purposes of administration the subject is laid on the back with the head tilted backwards for 5 minutes. The nostrils are cleaned by blowing of the nose immediately prior to administration.
Intra-muscular administration is effected by injection of a single 1 ml dose of a composition similar to that of example 1, but omitting benzalkonium chloride and containing 50 MRC units into the glutaeus medius muscle.
Each subject receives the 4 administrations in randomized sequence, and at least 3 days are allowed between consecutive administrations. Each administration is effected in the morning after a light breakfast from which milk, butter and cheese is excluded. 100 ml water or orange juice is taken hourly following treatment to maintain urinary output. Further food is allowed not earlier than 4 hours after treatment.
Blood samples are taken immediately prior to administration (control), and at intervals of 5, 15, 30, 60, 90, 120, 180, 240, 360 and 480 minutes following administration. For the control a 20 ml sample is taken. All subsequent samples are 2 ml samples.
The concentration of salmon calcitonin in each serum sample is measured by radio-immuno-assay. Blood-pressure is controlled during the course of the trial and urine-samples tested for possible adverse reaction. Occurrence of side-effects, e.g. symptoms of nausea, is noted.
The AUC ("area under curve") for salmon calcitonin plasma concentration is calculated statistically, once employing all value, including those below the 26 pg/ml detectability limit, once with values below the detectability limit read as zero. Maximal plasma concentration and time at which this is reached are also determined. […]

SMILES | inhibition of the ciliary beating frequency of rat trachea [1] | AUC of serum concentration compared with 50 MRC units i.m. ([2]; 110 MRC units intra-nasally) | AUC of serum concentration compared with 50 MRC units i.m. ([2]; 220 MRC units intra-nasally) | adverse side-effects ([2]; nasal administrations, up to the highest dosage of 220 MRC units)
CC(C)(O)C(Cl)(Cl)Cl [chlorbutanol] | more than 50% | – | – | –
CC(C)C[C@H](NC(=O)[C@H](CCCCN)NC(=O)CNC(=O)[C@H](CC(C)C)NC(=O)[C@@H](NC(=O)[C@@H]1CSSC[C@H](N)C(=O)N[C@@H](CO)C(=O)N[C@@H](CC(N)=O)C(=O)N[C@@H](CC(C)C)C(=O)N[C@@H](CO)C(=O)N[C@@H]([C@@H](C)O)C(=O)N1)C(C)C)C(=O)N[C@@H](CO)C(=O)N[C@@H](CCC(N)=O)C(=O)N[C@@H](CCC(=O)O)C(=O)N[C@@H](CC(C)C)C(=O)N[C@@H](Cc1c[nH]cn1)C(=O)N[C@@H](CCCCN)C(=O)N[C@@H](CC(C)C)C(=O)N[C@@H](CCC(N)=O)C(=O)N[C@H](C(=O)N[C@@H](Cc1ccc(O)cc1)C(=O)N1CCC[C@H]1C(=O)N[C@@H](CCCNC(=N)N)C(=O)N[C@H](C(=O)N[C@@H](CC(N)=O)C(=O)N[C@H](C(=O)NCC(=O)N[C@@H](CO)C(=O)NCC(=O)N[C@H](C(=O)N1CCC[C@H]1C(N)=O)[C@@H](C)O)[C@@H](C)O)[C@@H](C)O)[C@@H](C)O [salmon calcitonin] | – | comparable | comparable | No adverse side-effects were recorded
